From patent EP4603105A1, “PHARMACEUTICAL COMPOSITION CONTAINING CYCLIC COMPOUND HAVING SELECTIVE KRAS INHIBITORY EFFECT AGAINST HRAS AND NRAS” (CHUGAI SEIYAKU KABUSHIKI KAISHA, priority 2022, dated 2024)
Where two headings read alike, the source gives them in different places.

Experiments:
[1] = target: HRAS wild-type protein (Homo sapiens, UniProt P01112); assay: Binding to HRAS by surface plasmon resonance (SPR), KD and KD ratio to KRAS
Outline: (§1)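 Recombinant RAS proteins bearing a biotinylated Avi tag and loaded with GDP served as the captured ligand, recaptured fresh every cycle. Binding responses were referenced to an uncoated surface and a buffer-only blank cycle. Dissociation constants were obtained by 1:1 model fitting at 30°C.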

[2] = target: GDP-bound NRAS wild-type protein (Homo sapiens, UniProt P01111); assay: Binding to NRAS by surface plasmon resonance (SPR), KD and KD ratio to KRAS
Outline: as §1

[3] = system: human lung cancer strain NCI-H441; assay: NCI-H441 cell proliferation inhibitory activity (CellTiter-Glo, 4 days); type: cell-based; settings: read-out: NCl-H441 IC50
Outline: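 Signal came from […] measured per well once the reagent was added. Beforehand, cells were cultured at 37°C and 5% carbon dioxide on a compound series serially diluted in dimethyl sulfoxide.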

[4] = target: GDP-bound KRAS wild-type protein (Homo sapiens, UniProt P01116); assay: Binding to KRAS by surface plasmon resonance (SPR), dissociation constant KD
Outline: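 Biotinylated GDP-bound RAS was captured at about 100–300 RU. Running buffer: HBS pH 7.4, 10 mM MgCl2, 10 µM GDP, 1 mM DTT, 0.01% Tween 20, 4% DMSO.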

[5] = ratio of KD for HRAS wild-type protein to KD for KRAS
[6] = ratio of KD for GDP-bound NRAS wild-type protein to KD for KRAS
[7] = ratio of KD with respect to HRAS wild-type protein to KD with respect to KRAS
[8] = ratio of KD with respect to GDP-bound NRAS wild-type protein to KD with respect to KRAS
[9] = 50% proliferation inhibitory concentration, four days
[10] = Single Cycle Kinetics, 1:1 binding model

GDP-bound NRAS wild-type protein, sequence (P01111 whole entry): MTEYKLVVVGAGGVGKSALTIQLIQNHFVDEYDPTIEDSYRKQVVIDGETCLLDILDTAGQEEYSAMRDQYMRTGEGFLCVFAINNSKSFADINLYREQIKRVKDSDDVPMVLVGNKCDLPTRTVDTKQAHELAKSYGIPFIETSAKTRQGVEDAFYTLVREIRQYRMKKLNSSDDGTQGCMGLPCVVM
HRAS wild-type protein, sequence (P01112 whole entry): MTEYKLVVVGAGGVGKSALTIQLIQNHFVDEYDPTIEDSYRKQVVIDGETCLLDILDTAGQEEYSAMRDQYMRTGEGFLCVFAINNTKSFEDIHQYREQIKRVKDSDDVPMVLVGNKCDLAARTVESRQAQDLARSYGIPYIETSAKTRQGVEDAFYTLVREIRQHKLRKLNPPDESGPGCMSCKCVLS
GDP-bound KRAS wild-type protein, sequence (P01116 1-188 isoform P01116-2): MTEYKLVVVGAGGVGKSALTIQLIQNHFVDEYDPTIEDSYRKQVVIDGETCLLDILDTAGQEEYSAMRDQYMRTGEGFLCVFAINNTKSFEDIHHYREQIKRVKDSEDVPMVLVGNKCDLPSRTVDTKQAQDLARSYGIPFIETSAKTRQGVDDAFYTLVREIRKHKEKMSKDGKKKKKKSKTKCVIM

Row | SMILES | IC50 ([3]; NCI-H441 cells, 4 days) | Kd ([4]; Single Cycle Kinetics) | IC50 [3, 9] | Kd [4, 10] | Kd ([4]; 1:1 binding model) | HRAS /KRAS [1, 5] | NRAS /KRAS [2, 6] | HRAS /KRAS [1, 7] | NRAS /KRAS [2, 8]
1 | CCC[C@H]1C(=O)N[C@@H]([C@@H](C)CC)C(=O)N2CCC[C@H]2C(=O)N(C)[C@H]2C/C=C\CCN(C2=O)[C@@H](Cc2ccc(C(F)(F)F)cc2)C(=O)N(C)CC(=O)N[C@@H](CCc2ccc(C(F)(F)F)c(OC)c2)C(=O)N2CC[C@H](OC)[C@H]2C(=O)N(C)C2(CCC2)C(=O)N(C)[C@@H](C2CCCC2)C(=O)N(C)[C@H](C(=O)N(C)C)CC(=O)N1C [PP3241] | 10.5 nM | 0.31 nM | – | – | – | B (a compound having 3 or more and less than 10 is denoted as B) | A (a compound having 10 or more and less than 20 is denoted as A) | – | –
2 | CCO[C@@H]1C[C@H]2C(=O)NC3(CCC3)C(=O)N(C)[C@@H](C3CCCC3)C(=O)N(C)[C@H](C(=O)N3CCC3)CC(=O)N(C)[C@@H](CC)C(=O)N[C@@H]([C@@H](C)CC)C(=O)N(C)CC(=O)N(C)[C@H]3C/C=C\CCN(C3=O)[C@@H](CC3CCCCC3)C(=O)N(C)CC(=O)N[C@@H](CCc3cc(F)c(C(F)(F)F)c(F)c3)C(=O)N2C1 [PP1445] | – | – | 92.8 nM | 0.27 nM | – | – | – | A (a compound having 10 or more and less than 20 is denoted as A) | A (a compound having 10 or more and less than 20 is denoted as A)
3 | C#CCN1CC(=O)N(C)[C@H]2C/C=C\CCN(C2=O)[C@@H](Cc2ccc(C(F)F)cc2)C(=O)N(C)CC(=O)N[C@@H](CCc2cc(F)c(C(F)(F)F)c(F)c2)C(=O)N2C[C@H](OC(C)C)C[C@H]2C(=O)N(C)C2(CCC2)C(=O)N(C)[C@@H](C(CC)CC)C(=O)N(C)[C@H](C(=O)N(C)C)CC(=O)N(C)[C@@H](CC(F)(F)F)C(=O)N[C@@H](C(C)C)C1=O [PP3496] | 11.6 nM | 0.43 nM | – | – | – | A (a compound having 10 or more and less than 20 is denoted as A) | A (a compound having 10 or more and less than 20 is denoted as A) | – | –
4 | CCC[C@@H]1NC(=O)C[C@@H](C(=O)N(C)C)N(C)C(=O)[C@H](C2CCCC2)N(C)C(=O)C2(CC(C)(C)C2)NC(=O)[C@@H]2C[C@@H](OCC)CN2C(=O)[C@H](CCc2cc(F)c(C(F)(F)F)c(F)c2)NC(=O)CN(C)C(=O)[C@H](Cc2ccc(C(F)(F)F)cc2)N2CC/C=C\C[C@@H](C2=O)N(C)C(=O)CN(C)C(=O)[C@H]([C@@H](C)CC)NC1=O [PP3457] | 13.2 nM | 0.16 nM | – | – | – | A (a compound having 10 or more and less than 20 is denoted as A) | AA (a compound having 20 or more is denoted as AA) | – | –
5 | CCO[C@@H]1C[C@H]2C(=O)NC3(CCC3)C(=O)N(C)[C@@H](C3CCCC3)C(=O)N(C)[C@H](C(=O)N(C)C)CC(=O)N(C)[C@@H](Cc3cccnc3)C(=O)N[C@@H]([C@@H](C)CC)C(=O)N(C)CC(=O)N(C)[C@H]3CCCCCN(C3=O)[C@@H](Cc3ccc(F)cc3)C(=O)N(C)CC(=O)N[C@@H](CCc3cc(F)c(C(F)(F)F)c(F)c3)C(=O)N2C1 [PP1196] | – | – | 50.8 nM | 0.04 nM | – | – | – | B (a compound having 3 or more and less than 10 is denoted as B) | B (a compound having 3 or more and less than 10 is denoted as B)
6 | CCC[C@H]1C(=O)N[C@@H]([C@@H](C)CC)C(=O)N(C)CC(=O)N(C)[C@H]2C/C=C\CCN(C2=O)[C@@H](Cc2ccc(C)cc2)C(=O)N(C)CC(=O)N[C@@H](CCc2cc(F)c(C(F)(F)F)c(F)c2)C(=O)N2CC[C@H](OC)[C@H]2C(=O)N(C)C2(CCC2)C(=O)N(C)[C@@H](C2CCCC2)C(=O)N(C)[C@H](C(=O)N(C)C)CC(=O)N1C [PP3287] | 5.4 nM | 0.057 nM | – | – | – | B (a compound having 3 or more and less than 10 is denoted as B) | A (a compound having 10 or more and less than 20 is denoted as A) | – | –
7 | CCO[C@@H]1C[C@H]2C(=O)NC3(CCC3)C(=O)N(C)[C@@H](C3CCCC3)C(=O)N(C)[C@H](C(=O)N3CCCC3)CC(=O)N(C)[C@@H](CC3CC3)C(=O)N[C@@H]([C@@H](C)CC)C(=O)N(C)CC(=O)N(C)[C@H]3C/C=C\CCN(C3=O)[C@@H](Cc3ccc(C(F)(F)F)cc3)C(=O)N(C)CC(=O)N[C@@H](CCc3cc(F)c(C(F)(F)F)c(F)c3)C(=O)N2C1 [PP1296] | – | – | 14.7 nM | 0.12 nM | – | – | – | A (a compound having 10 or more and less than 20 is denoted as A) | AA (a compound having 20 or more is denoted as AA)

Now from value to molecule, other results behind:

Row | IC50 ([3]; NCI-H441 cells, 4 days) | Kd ([4]; Single Cycle Kinetics) | IC50 [3, 9] | Kd [4, 10] | Kd ([4]; 1:1 binding model) | SMILES | HRAS /KRAS [1, 5] | NRAS /KRAS [2, 6] | HRAS /KRAS [1, 7] | NRAS /KRAS [2, 8]
8 | 18.7 nM | 0.77 nM | – | – | – | CCC[C@H]1C(=O)N[C@@H](C2CCCC2)C(=O)N(C)CC(=O)N(C)[C@H]2C/C=C\CCN(C2=O)[C@@H](Cc2ccc(C)cc2)C(=O)N(C)CC(=O)N[C@@H](CCc2cc(F)c(C(F)(F)F)c(F)c2)C(=O)N2CC3(CC3)C[C@H]2C(=O)NC2(CCC2)C(=O)N(C)[C@@H](C(CC)CC)C(=O)N(C)[C@H](C(=O)N(C)C)CC(=O)N1C [PP3428] | A (a compound having 10 or more and less than 20 is denoted as A) | A (a compound having 10 or more and less than 20 is denoted as A) | – | –
9 | 40.2 nM | 0.97 nM | – | – | – | CCCO[C@@H]1C[C@H]2C(=O)NC3(CC(C)(C)C3)C(=O)N(C)[C@@H](C3CCCC3)C(=O)N(C)[C@H](C(=O)N(C)CC)CC(=O)N(C)[C@@H](COCC)C(=O)N[C@@H]([C@@H](C)CC)C(=O)N3CCC[C@H]3C(=O)N(C)[C@H]3C/C=C\CCN(C3=O)[C@@H](Cc3ccc(C)cc3)C(=O)N(C)CC(=O)N[C@@H](CCc3cc(F)c(C(F)(F)F)c(F)c3)C(=O)N2C1 [PP3459] | A (a compound having 10 or more and less than 20 is denoted as A) | A (a compound having 10 or more and less than 20 is denoted as A) | – | –
10 | 98.6 nM | – | – | – | 2 nM | CCC[C@H]1C(=O)N[C@@H]([C@@H](C)CC)C(=O)N2CCC[C@H]2C(=O)N(C)[C@H]2C/C=C\CCN(C2=O)[C@@H](Cc2ccc(C)cc2)C(=O)N(C)CC(=O)N[C@@H](CCc2ccc(Cl)c(Cl)c2)C(=O)N2C[C@H](OC(C)C)C[C@H]2C(=O)NC2(CC(C)(C)C2)C(=O)N(C)[C@@H](C(CC)CC)C(=O)N(C)[C@H](C(=O)N(C)C)CC(=O)N1C [PP2641] | A (a compound having 10 or more and less than 20 is denoted as A) | AA (a compound having 20 or more is denoted as AA) | – | –
11 | 4.8 nM | – | – | – | 0.62 nM | CCOC[C@H]1C(=O)N[C@@H]([C@@H](C)CC)C(=O)N2CCC[C@H]2C(=O)N(C)[C@H]2C/C=C\CCN(C2=O)[C@@H](Cc2ccc(C)cc2)C(=O)N(C)CC(=O)N[C@@H](CCc2cc(F)c(C(F)(F)F)c(F)c2)C(=O)N2C[C@H](OCC)C[C@H]2C(=O)NC2(CC(C)(C)C2)C(=O)N(C)[C@@H](C2CCCC2)C(=O)N(C)[C@H](C(=O)N(C)CC)CC(=O)N1C [PP2428] | A (a compound having 10 or more and less than 20 is denoted as A) | A (a compound having 10 or more and less than 20 is denoted as A) | – | –
12 | 24.2 nM | 0.56 nM | – | – | – | CCCO[C@@H]1C[C@H]2C(=O)NC3(CC(C)(C)C3)C(=O)N(C)[C@@H](C3CCCC3)C(=O)N(C)[C@H](C(=O)N(C)CC)CC(=O)N(C)[C@@H](COCC)C(=O)N[C@@H]([C@@H](C)CC)C(=O)N3C[C@@H](F)C[C@H]3C(=O)N(C)[C@H]3C/C=C\CCN(C3=O)[C@@H](Cc3ccc(C)cc3)C(=O)N(C)CC(=O)N[C@@H](CCc3ccc(C(F)(F)F)c(OC)c3)C(=O)N2C1 [PP3469] | A (a compound having 10 or more and less than 20 is denoted as A) | A (a compound having 10 or more and less than 20 is denoted as A) | – | –
13 | 122 nM | – | – | – | 2.9 nM | CCOC[C@H]1C(=O)N[C@@H]([C@@H](C)CC)C(=O)N(C2CC2)CC(=O)N(C)[C@H]2C/C=C\CCN(C2=O)[C@@H](Cc2ccc(C)cc2)C(=O)N(C)CC(=O)N[C@@H](CCc2ccc(Cl)c(Cl)c2)C(=O)N2C[C@H](OCC)C[C@H]2C(=O)NC2(CC(C)(C)C2)C(=O)N(C)[C@@H](CC2CCC2)C(=O)N(C)[C@H](C(=O)N(C)C)CC(=O)N1C [PP2762] | A (a compound having 10 or more and less than 20 is denoted as A) | A (a compound having 10 or more and less than 20 is denoted as A) | – | –
14 | 55.8 nM | 0.88 nM | – | – | – | CCO[C@@H]1C[C@H]2C(=O)NC3(CCCC3)C(=O)N(C)[C@@H](C3CCCC3)C(=O)N(C)[C@H](C(=O)N(C)C)CC(=O)N(C)[C@@H]([C@@H](C)OC)C(=O)N[C@@H]([C@@H](C)CC)C(=O)N3CCC[C@H]3C(=O)N(C)[C@H]3C/C=C\CCN(C3=O)[C@@H](Cc3ccc(C)cc3)C(=O)N(C)CC(=O)N[C@@H](CCc3cc(F)c(C(F)(F)F)c(F)c3)C(=O)N2C1 [PP3483] | A (a compound having 10 or more and less than 20 is denoted as A) | A (a compound having 10 or more and less than 20 is denoted as A) | – | –
15 | 48.7 nM | 1.1 nM | – | – | – | CCCO[C@@H]1C[C@H]2C(=O)NC3(CC(C)(C)C3)C(=O)N(C)[C@@H](C3CCCC3)C(=O)N(C)[C@H](C(=O)N(C)CC)CC(=O)N(C)[C@@H](COCC)C(=O)N[C@@H]([C@@H](C)CC)C(=O)N3CCC[C@H]3C(=O)N(C)[C@H]3C/C=C\CCN(C3=O)[C@@H](Cc3ccc(C(F)(F)F)cc3)C(=O)N(C)CC(=O)N[C@@H](CCc3cc(F)c(C(F)(F)F)c(F)c3)C(=O)N2C1 [PP3471] | A (a compound having 10 or more and less than 20 is denoted as A) | A (a compound having 10 or more and less than 20 is denoted as A) | – | –
